Measurements: ChEMBL document CHEMBL5331145, “Discovery of a Novel Bifunctional Steroid Analog, YXG-158, as an Androgen Receptor Degrader and CYP17A1 Inhibitor for the Treatment of Enzalutamide-Resistant Prostate Cancer” (J Med Chem, 2023)
Calls of active or inactive are those of the source. The rule behind the calls is not given here.

Assays:
[1] = target: T1, Androgen receptor (Homo sapiens) (UniProt P10275); assay: Induction of androgen receptor degradation in human 22Rv1 cells incubated for 24 hrs by Western blot analysis; assay type: cell-based; settings: dose 1-20 µM
T1 sequence (whole entry): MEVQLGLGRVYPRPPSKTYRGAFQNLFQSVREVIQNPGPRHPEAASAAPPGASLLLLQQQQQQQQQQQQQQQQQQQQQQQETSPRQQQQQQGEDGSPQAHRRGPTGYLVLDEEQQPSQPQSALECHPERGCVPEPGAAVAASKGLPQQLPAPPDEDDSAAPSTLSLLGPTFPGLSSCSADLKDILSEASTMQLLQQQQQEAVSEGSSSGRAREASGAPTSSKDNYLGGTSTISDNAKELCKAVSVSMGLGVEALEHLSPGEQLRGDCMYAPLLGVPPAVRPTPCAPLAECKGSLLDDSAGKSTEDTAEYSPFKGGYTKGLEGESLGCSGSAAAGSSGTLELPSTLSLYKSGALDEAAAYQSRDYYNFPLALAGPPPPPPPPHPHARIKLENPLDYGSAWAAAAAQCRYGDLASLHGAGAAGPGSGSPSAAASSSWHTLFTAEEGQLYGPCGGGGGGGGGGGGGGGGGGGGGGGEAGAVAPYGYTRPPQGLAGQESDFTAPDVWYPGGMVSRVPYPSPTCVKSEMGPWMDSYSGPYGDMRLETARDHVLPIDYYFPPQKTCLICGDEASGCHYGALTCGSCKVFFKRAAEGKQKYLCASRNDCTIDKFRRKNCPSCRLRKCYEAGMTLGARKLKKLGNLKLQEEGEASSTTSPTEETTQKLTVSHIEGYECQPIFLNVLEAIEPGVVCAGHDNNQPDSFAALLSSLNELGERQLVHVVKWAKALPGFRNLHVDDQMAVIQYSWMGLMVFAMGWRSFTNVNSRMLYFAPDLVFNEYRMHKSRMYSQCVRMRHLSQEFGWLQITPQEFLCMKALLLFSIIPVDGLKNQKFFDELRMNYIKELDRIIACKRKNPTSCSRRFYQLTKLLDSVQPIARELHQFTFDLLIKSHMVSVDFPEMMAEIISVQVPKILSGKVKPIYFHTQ

22Rv1 = assay: Induction of androgen receptor splice variant 7 degradation in human 22Rv1 cells at 1 to 20 uM incubated for 24 hrs by Western blot analysis; assay type: cell-based; settings: dose 1-20 µM
LNCaP C4-2B = assay: Antitumor activity against enzalutamide resistant human LNCaP C4-2B cells xenografted in BALB/c mouse assessed as tumor growth suppression at 10 mg/kg, po administered once daily for 28 days and measured every 3 days; assay type: functional, organism-based; settings: time 28.0 day
[2] = target: T1, Androgen receptor (Homo sapiens); assay: Induction of androgen receptor degradation in human LNCaP cells at 20 uM incubated for 24 hrs in presence of MG-132; assay type: cell-based
[3] = target: T1, Androgen receptor (Homo sapiens); assay: Induction of androgen receptor degradation in human VCaP cells incubated for 24 hrs by Western blot analysis; assay type: cell-based; settings: dose 1-20 µM
Mus musculus = assay: In vivo induction of androgen receptor in human LNCaP/AR cells xenografted in SCID mouse assessed as reduction in PSA level at 10 to 30 mg/kg, po administered once daily for 28 days by ELISA; assay type: functional, organism-based; settings: dose 10-30 mg/kg, time 28.0 day
[4] = system: Androgen receptor (Homo sapiens), P10275 [F877L]; assay: Antagonist activity at androgen receptor F876L mutant expressed in HEK293 cells assessed as reduction in DHT-induced transcriptional activation of androgen receptor incubated for 24 hrs by Steady-Glo assay relative to control; assay type: cell-based; set-up: scale not given: the % may be the effect or the level left; settings: filed as antagonist
Sequence of Androgen receptor (Homo sapiens), P10275 [F877L] (P10275 whole entry F877L): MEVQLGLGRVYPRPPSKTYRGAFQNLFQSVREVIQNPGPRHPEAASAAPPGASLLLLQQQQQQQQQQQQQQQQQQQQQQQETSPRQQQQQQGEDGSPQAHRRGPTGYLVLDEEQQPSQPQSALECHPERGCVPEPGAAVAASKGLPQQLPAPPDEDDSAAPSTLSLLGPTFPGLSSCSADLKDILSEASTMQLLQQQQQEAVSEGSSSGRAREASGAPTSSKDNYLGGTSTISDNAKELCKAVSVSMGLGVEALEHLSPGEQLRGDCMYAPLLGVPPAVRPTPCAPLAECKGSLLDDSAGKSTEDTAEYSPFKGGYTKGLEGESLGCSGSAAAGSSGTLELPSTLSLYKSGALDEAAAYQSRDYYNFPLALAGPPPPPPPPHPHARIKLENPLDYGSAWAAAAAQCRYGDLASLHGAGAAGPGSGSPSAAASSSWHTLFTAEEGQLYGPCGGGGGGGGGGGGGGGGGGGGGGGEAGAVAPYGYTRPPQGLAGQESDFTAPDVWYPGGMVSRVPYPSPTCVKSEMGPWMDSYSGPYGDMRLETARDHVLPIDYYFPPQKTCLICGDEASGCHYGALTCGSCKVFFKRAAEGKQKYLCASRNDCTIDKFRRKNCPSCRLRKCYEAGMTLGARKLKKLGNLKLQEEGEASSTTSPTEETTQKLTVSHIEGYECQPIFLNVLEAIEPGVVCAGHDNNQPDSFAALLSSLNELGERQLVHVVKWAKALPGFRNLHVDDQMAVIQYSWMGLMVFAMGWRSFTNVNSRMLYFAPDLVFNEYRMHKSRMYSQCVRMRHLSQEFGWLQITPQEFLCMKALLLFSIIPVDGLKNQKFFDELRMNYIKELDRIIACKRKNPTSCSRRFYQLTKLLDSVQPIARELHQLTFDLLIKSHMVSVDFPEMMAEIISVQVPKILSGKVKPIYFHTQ

[5] = target: T1, Androgen receptor (Homo sapiens); assay: Induction of androgen receptor degradation in human LNCaP cells incubated for 24 hrs by Western blot analysis; assay type: cell-based; settings: dose 1-20 µM
[6] = target: Androgen receptor (Homo sapiens) (UniProt P10275); assay: In vivo induction of androgen receptor in human LNCaP/AR cells xenografted in SCID mouse assessed as reduction in AR protein level at 30 mg/kg, po administered once daily for 28 days by ELISA; set-up: scale not given: the % may be the effect or the level left; settings: time 28.0 day
[7] = target: T1, Androgen receptor (Homo sapiens); assay: Induction of androgen receptor degradation in human LNCaP cells at 20 uM incubated for 24 hrs; assay type: cell-based
LNCaP/AR = assay: Antitumor activity against human LNCaP/AR cells xenografted in SCID male mouse assessed as tumor growth inhibition at 30 mg/kg, po administered once daily for 28 days and measured every 3 days; assay type: functional, organism-based; settings: time 28.0 day
[8] = target: T1, Androgen receptor (Homo sapiens); assay: Induction of androgen receptor degradation in human LNCaP cells assessed as reduction in AR mRNA level incubated for 24 hrs by qPCR analysis; assay type: cell-based; settings: dose 1-20 µM
[9] = target: Androgen receptor (Homo sapiens) (UniProt P10275); assay: In vivo induction of androgen receptor in human LNCaP/AR cells xenografted in SCID mouse assessed as reduction in AR protein level at 10 mg/kg, po administered once daily for 28 days by ELISA; set-up: scale not given: the % may be the effect or the level left; settings: time 28.0 day
LNCaP = assay: Antiproliferative activity against human LNCaP cells incubated for 6 days by CellTiter-Glo assay; assay type: functional, cell-based
[10] = target: Voltage-gated inwardly rectifying potassium channel KCNH2 (Homo sapiens, UniProt Q12809); assay: Inhibition of human ERG by patch clamp assay; assay type: toxicity
Sequence of Voltage-gated inwardly rectifying potassium channel KCNH2 (Q12809 whole entry): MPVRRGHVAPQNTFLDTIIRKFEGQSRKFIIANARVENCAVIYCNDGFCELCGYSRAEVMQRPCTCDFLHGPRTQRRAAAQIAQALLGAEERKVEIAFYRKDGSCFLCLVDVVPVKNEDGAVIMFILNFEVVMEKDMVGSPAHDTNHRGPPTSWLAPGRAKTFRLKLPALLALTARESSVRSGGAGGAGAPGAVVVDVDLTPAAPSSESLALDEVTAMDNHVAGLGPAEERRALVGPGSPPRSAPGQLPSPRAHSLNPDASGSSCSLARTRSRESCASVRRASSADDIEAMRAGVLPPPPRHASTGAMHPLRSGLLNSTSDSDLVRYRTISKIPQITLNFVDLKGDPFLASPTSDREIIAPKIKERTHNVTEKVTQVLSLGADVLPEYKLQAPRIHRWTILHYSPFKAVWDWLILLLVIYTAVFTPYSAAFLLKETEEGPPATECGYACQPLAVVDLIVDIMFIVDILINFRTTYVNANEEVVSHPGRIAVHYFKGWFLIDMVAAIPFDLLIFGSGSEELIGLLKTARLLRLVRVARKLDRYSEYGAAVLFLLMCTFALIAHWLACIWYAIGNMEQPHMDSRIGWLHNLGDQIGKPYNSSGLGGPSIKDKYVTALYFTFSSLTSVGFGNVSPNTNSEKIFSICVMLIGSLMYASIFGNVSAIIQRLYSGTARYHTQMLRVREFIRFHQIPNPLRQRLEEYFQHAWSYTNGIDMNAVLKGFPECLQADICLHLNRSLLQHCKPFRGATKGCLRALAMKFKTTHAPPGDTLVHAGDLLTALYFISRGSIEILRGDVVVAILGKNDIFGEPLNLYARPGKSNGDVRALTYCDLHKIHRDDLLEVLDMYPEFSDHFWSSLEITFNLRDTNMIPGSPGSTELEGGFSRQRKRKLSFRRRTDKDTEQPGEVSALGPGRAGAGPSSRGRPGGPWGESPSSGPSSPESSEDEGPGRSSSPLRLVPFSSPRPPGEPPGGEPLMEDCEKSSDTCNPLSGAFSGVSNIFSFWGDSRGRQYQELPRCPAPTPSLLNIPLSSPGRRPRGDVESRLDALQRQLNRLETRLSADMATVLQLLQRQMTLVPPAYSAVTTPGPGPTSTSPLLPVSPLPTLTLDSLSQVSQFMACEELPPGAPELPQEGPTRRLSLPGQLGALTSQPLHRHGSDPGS

[11] = target: T1, Androgen receptor (Homo sapiens); assay: Potency index, ratio of galeterone DC50 to test compound DC50 for induction of androgen receptor degradation in human LNCaP cells; assay type: cell-based
Androgen receptor = target: T2, Androgen receptor (Homo sapiens, UniProt P10275); assay: Induction of androgen receptor degradation in human LNCaP cells incubated for 24 hrs by ELISA; assay type: cell-based
T2 sequence (P10275 whole entry): T1 sequence (whole entry)

Cc1cn(C2=CCC3C4CC=C5C[C@@H](NC(=O)c6ccc(F)cc6)CC[C@]5(C)C4CC[C@]23C)cn1 (stereo not given in full)
Activity [1]: Dose-Dependent Effect | Activity (22Rv1): Active | Activity (LNCaP C4-2B): inactive | Activity [2]: inactive | Activity [3]: Dose-Dependent Effect | Activity (Mus musculus): Active | Activity [4]: 68% | Activity [5]: Dose-Dependent Effect | Activity [6]: 52% | Activity [7]: Active | Activity (LNCaP/AR): Active | Activity [8]: Dose-Dependent Effect | Activity [9]: 40%

COC(=O)c1cn(C2=CCC3C4CC=C5C[C@@H](NC(=O)c6ccnnc6)CC[C@]5(C)C4CC[C@]23C)cn1 (stereo not given in full)
IC50 (LNCaP): 1960 nM

Cc1cn(C2=CCC3C4CC=C5C[C@@H](NC(=O)c6ccc([N+](=O)[O-])cc6)CC[C@]5(C)C4CC[C@]23C)cn1 (stereo not given in full)
IC50 [10]: > 40000 nM | IC50 (LNCaP): 595 nM | Ratio [11]: 2.5 | EC50 (Androgen receptor): 2600 nM

C[C@]12CC[C@H](NC(=O)c3ccnnc3)CC1=CCC1C2CC[C@]2(C)C(n3cnc(Cl)c3)=CCC12 (stereo not given in full)
IC50 [10]: 24600 nM | IC50 (LNCaP): 608 nM

COc1ccc(C(=O)N[C@H]2CC[C@@]3(C)C(=CCC4C3CC[C@]3(C)C(n5cnc(C)c5)=CCC43)C2)cc1 (stereo not given in full)
IC50 (LNCaP): > 10000 nM

CCc1cn(C2=CCC3C4CC=C5C[C@@H](NC(=O)c6ccncc6)CC[C@]5(C)C4CC[C@]23C)cn1 (stereo not given in full)
IC50 [10]: 3580 nM | IC50 (LNCaP): 356 nM | Ratio [11]: 2.5 | EC50 (Androgen receptor): 3210 nM

Cc1cn(C2=CCC3C4CC=C5C[C@@H](NC(=O)c6ccc(C#N)cc6)CC[C@]5(C)C4CC[C@]23C)cn1 (stereo not given in full)
IC50 [10]: > 40000 nM | IC50 (LNCaP): 643 nM | Ratio [11]: 2.5 | EC50 (Androgen receptor): 1560 nM

Cc1cn(C2=CCC3C4CC=C5C[C@@H](NS(=O)(=O)c6ccc(C#N)cc6)CC[C@]5(C)C4CC[C@]23C)cn1 (stereo not given in full)
IC50 (LNCaP): 3650 nM

CC(C)(C)c1cn(C2=CCC3C4CC=C5C[C@@H](NC(=O)c6ccnnc6)CC[C@]5(C)C4CC[C@]23C)cn1 (stereo not given in full)
IC50 (LNCaP): 1120 nM

Cc1cn(C2=CCC3C4CC=C5C[C@@H](NC(=O)n6ccnc6)CC[C@]5(C)C4CC[C@]23C)cn1 (stereo not given in full)
IC50 (LNCaP): 6550 nM

CC(C)(O)c1cn(C2=CCC3C4CC=C5C[C@@H](NC(=O)c6ccnnc6)CC[C@]5(C)C4CC[C@]23C)cn1 (stereo not given in full)
IC50 (LNCaP): 4630 nM

COc1cn(C2=CCC3C4CC=C5C[C@@H](NC(=O)c6ccnnc6)CC[C@]5(C)C4CC[C@]23C)cn1 (stereo not given in full)
IC50 [10]: 856000 nM | IC50 (LNCaP): 475 nM | Ratio [11]: 2.5 | EC50 (Androgen receptor): 3880 nM

C[C@]12CC[C@H](NC(=O)c3ccnnc3)CC1=CCC1C2CC[C@]2(C)C(n3cnc(F)c3)=CCC12 (stereo not given in full)
IC50 (LNCaP): 2350 nM

CC(O)c1cn(C2=CCC3C4CC=C5C[C@@H](NC(=O)c6ccnnc6)CC[C@]5(C)C4CC[C@]23C)cn1 (stereo not given in full)
IC50 (LNCaP): 1830 nM

CC(=O)c1cn(C2=CCC3C4CC=C5C[C@@H](NC(=O)c6ccnnc6)CC[C@]5(C)C4CC[C@]23C)cn1 (stereo not given in full)
IC50 (LNCaP): 1380 nM

CC(C)c1cn(C2=CCC3C4CC=C5C[C@@H](NC(=O)c6ccnnc6)CC[C@]5(C)C4CC[C@]23C)cn1 (stereo not given in full)
IC50 [10]: > 40000 nM | IC50 (LNCaP): 958 nM

CC(C)c1cn(C2=CCC3C4CC=C5C[C@@H](NC(=O)c6ccncc6)CC[C@]5(C)C4CC[C@]23C)cn1 (stereo not given in full)
IC50 [10]: 15000 nM | IC50 (LNCaP): 734 nM | Ratio [11]: 2.5 | EC50 (Androgen receptor): 4760 nM

C[C@]12CC[C@H](NC(=O)c3ccnnc3)CC1=CCC1C2CC[C@]2(C)C(n3cnc([N+](=O)[O-])c3)=CCC12 (stereo not given in full)
IC50 [10]: > 40000 nM | IC50 (LNCaP): 418 nM | Ratio [11]: 2.5 | EC50 (Androgen receptor): 3310 nM

Cc1cn(C2=CCC3C4CC=C5C[C@@H](NC(=O)c6ccc(S(C)(=O)=O)cc6)CC[C@]5(C)C4CC[C@]23C)cn1 (stereo not given in full)
IC50 [10]: > 40000 nM | IC50 (LNCaP): 527 nM | Ratio [11]: 2.5 | EC50 (Androgen receptor): 1370 nM

Cc1cn(C2=CCC3C4CC=C5C[C@@H](NC(=O)c6ncccn6)CC[C@]5(C)C4CC[C@]23C)cn1 (stereo not given in full)
IC50 (LNCaP): 2420 nM

C[C@]12CC[C@H](NC(=O)c3ccnnc3)CC1=CCC1C2CC[C@]2(C)C(n3cnc(Br)c3)=CCC12 (stereo not given in full)
IC50 (LNCaP): 1490 nM

Cc1cn(C2=CCC3C4CC=C5C[C@@H](NC(=O)c6ccncn6)CC[C@]5(C)C4CC[C@]23C)cn1 (stereo not given in full)
IC50 (LNCaP): 1240 nM

Cc1cn(C2=CCC3C4CC=C5C[C@@H](NC(=O)c6ccncc6F)CC[C@]5(C)C4CC[C@]23C)cn1 (stereo not given in full)
IC50 [10]: > 40000 nM | IC50 (LNCaP): 752 nM | Ratio [11]: 2.5 | EC50 (Androgen receptor): 5720 nM

C[C@]12CC[C@H](NC(=O)c3ccnnc3)CC1=CCC1C2CC[C@]2(C)C(n3cnc(C#N)c3)=CCC12 (stereo not given in full)
IC50 [10]: 2870 nM | IC50 (LNCaP): 471 nM

Cc1cn(C2=CCC3C4CC=C5C[C@@H](NS(=O)(=O)c6ccc([N+](=O)[O-])cc6)CC[C@]5(C)C4CC[C@]23C)cn1 (stereo not given in full)
IC50 (LNCaP): 3440 nM

C[C@]12CC[C@H](NC(=O)c3ccnnc3)CC1=CCC1C2CC[C@]2(C)C(n3cnc(C(F)(F)F)c3)=CCC12 (stereo not given in full)
IC50 (LNCaP): 819 nM

Cc1cn(C2=CCC3C4CC=C5C[C@@H](NS(=O)(=O)c6cccnc6)CC[C@]5(C)C4CC[C@]23C)cn1 (stereo not given in full)
IC50 (LNCaP): 2100 nM

CCc1cn(C2=CCC3C4CC=C5C[C@@H](NC(=O)c6ccnnc6)CC[C@]5(C)C4CC[C@]23C)cn1 (stereo not given in full)
IC50 [10]: 6580 nM | IC50 (LNCaP): 427 nM

COc1cn(C2=CCC3C4CC=C5C[C@@H](NC(=O)c6ccncc6)CC[C@]5(C)C4CC[C@]23C)cn1 (stereo not given in full)
IC50 [10]: 4070 nM | IC50 (LNCaP): 436 nM
